From patent US6673348B2, “Heat shock protein-based vaccines and immunotherapies” (priority 1995, dated 2004)
No end group written: not given here.

Experiments:
[1] = tested on: Ova-peptide pulsed EL4 cells; assay: Cytotoxicity of spleen cells from vaccinated mice, 18-hour chromium release assay; assay type: in vivo, C57BL/6 mice; conditions: mice immunized with the single component alone
Procedure: The purified hsp70 was combined with the synthesized peptides and used for immunization. To form the hsp70/peptide mixtures, approximately 15 μg (21.5 μM) hsp70 was combined with 5 μg of ova-peptide (0.5 mM, SEQ. ID. NO: 7) or 10 μg (0.5 mM) hybrid peptide (SEQ. ID NOS: 8 and 9) were mixed on ice to a final volume of 10 μl in Buffer B (final concentration: 20 mM Hepes pH 7.0, 150 mM KCl, 10 mM (NH4)2SO4, 2 mM MgCl2 and 2 mM MgADP, pH 7.0). The mixtures were incubated for 30 minutes at 37° C. and then used for in vivo immunizations.
C57BL/6 mice were immunized intradermally once a week for a total of two weeks with 10 μL of one of the mixtures described above or with a mixture of TITERMAX® (Vaxcell, Norcross, Ga.) and Ova-peptide (5 μg). One week after the second immunization, spleen cells were removed and mononuclear cells (6-8×10^7) were cultured with 3×10^6 γ-irradiated (3000 rad) stimulator cells. The stimulator cells were obtained from naive mice that had been sensitized in vitro with Ova-peptide (10 mg/ml) for 30 minutes at room temperature, washed and irradiated at 3000 rads.
Cytotoxicity of spleen cells from vaccinated mice were assayed on Ova-peptide pulsed EL4 cells in an 18-hour chromium release assay. CTL were generated by culturing in vivo immunized spleen cells for 5 days at a concentration of 10^6 cells/mL in RPMI medium, 10% FCS, penicillin, streptomycin and 2 mM L-glutamine, together with 3×10^6 γ-irradiated (3,000 rad) stimulator cells/mL. Target cells were prepared by culturing cells for 1 hour in the presence of 250 μCi of ^51Cr sodium chromate (DuPont, Boston, Mass.) in Tris-phosphate buffer, pH 7.4 at 37° C. for 60 minutes. After washing, 10^4 ^51Cr-labeled target cells were mixed with effector lymphocytes to yield several different effector/target (E/T) ratios and were incubated for 18 hours. Supernatants were harvested and the radio-activity was measured in a gamma counter. Percent specific lysis was calculated as: 100×[(cpm release by CTL-cpm spontaneous release)/(cpm maximal release—cpm spontaneous release)]. Maximal response was determined by addition of 1% Triton X-100. Spontaneous release of all target in the absence of effector cells was less than 25% of the maximal release.

[2] = target: T1, BiP (Mus musculus, UniProt P20029); assay: ATP-mediated peptide release, elution profile of 125I-OVA-BiP and BiP; assay type: binding; conditions: presence and absence of 2 mM ATP
T1 construct: mature wild-type or KDEL-deleted BiP can be harvested from the periplasm; extra Met (initiator ATG of the 5' primer, ahead of the mature N-terminus) (N); made in house; host or cells: E. coli BL21, pET22, periplasmic extract
T1 sequence (P20029 20-655): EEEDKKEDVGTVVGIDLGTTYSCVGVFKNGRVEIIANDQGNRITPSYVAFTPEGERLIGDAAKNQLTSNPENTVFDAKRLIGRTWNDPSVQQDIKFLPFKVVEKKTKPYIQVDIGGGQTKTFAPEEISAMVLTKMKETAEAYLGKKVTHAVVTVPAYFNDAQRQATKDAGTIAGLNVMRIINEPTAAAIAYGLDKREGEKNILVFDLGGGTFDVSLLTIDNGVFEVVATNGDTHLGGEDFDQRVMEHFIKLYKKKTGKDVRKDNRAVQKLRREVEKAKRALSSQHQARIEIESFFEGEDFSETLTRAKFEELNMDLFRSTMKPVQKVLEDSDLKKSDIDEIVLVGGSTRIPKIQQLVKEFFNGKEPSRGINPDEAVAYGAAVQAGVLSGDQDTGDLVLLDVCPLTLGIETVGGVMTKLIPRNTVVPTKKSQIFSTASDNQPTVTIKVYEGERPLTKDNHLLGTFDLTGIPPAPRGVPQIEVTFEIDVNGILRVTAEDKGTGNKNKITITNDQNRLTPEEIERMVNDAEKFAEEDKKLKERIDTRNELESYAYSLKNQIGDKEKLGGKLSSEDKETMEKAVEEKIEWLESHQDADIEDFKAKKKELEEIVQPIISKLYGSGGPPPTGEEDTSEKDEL
Procedure: To prepare ^125I-OVA-BiP, 250 μCi of monoiodinated Bolton-Hunter reagent was transferred into a stoppered vial and the solvent in which it was dissolved was evaporated with a gentle stream of argon gas. To the dried reagent 222 μL of 4.5 mg/mL OVA-BiP in 100 mM NaBO3, pH 8, […], 10% DMSO was added. The reaction was mixed and incubated at 25° C. for 45 minutes and continued at 4° C. for a further hour. The labeled peptide was repurified by reverse phase HPLC on a C-4 column in a 20 minute, 0-100% acetonitrile (0.1% TFA) gradient. The iodinated OVA-BiP was combined with BiP in substantially the same manner as the heat shock proteins in Example 7, except that since the iodinated peptide was at a very low concentration, 1 μl (approx 32 ng) of labeled peptide was mixed with 5 μg of unlabeled peptide and this was incubated with 50 μg of BiP in 20 μL of binding buffer. To observe ATP-mediated peptide release, ATP was added to a final concentration of 2 mM after the 30 minute incubation and incubated for a further 5 minutes prior to spinning. These samples were run on the same column as above, but equilibrated in binding buffer supplemented with 2 mM ATP. […] This is consistent with the observation that ATP mediates release of bound proteins or polypeptides from heat shock proteins.

[3] = target: T2, hsp70 (Mus musculus, UniProt P17879); assay: Binding of 14C-labeled OVA-BiP to heat shock protein, co-elution on Sephacryl S-300 column; conditions: 100 μM 14C-labeled peptide, 50 μg hsp70, 37° C., 30 minutes
T2 construct: made in house; host or cells: E. coli DH5α, plasmid pMS236
T2 sequence (P17879 whole entry): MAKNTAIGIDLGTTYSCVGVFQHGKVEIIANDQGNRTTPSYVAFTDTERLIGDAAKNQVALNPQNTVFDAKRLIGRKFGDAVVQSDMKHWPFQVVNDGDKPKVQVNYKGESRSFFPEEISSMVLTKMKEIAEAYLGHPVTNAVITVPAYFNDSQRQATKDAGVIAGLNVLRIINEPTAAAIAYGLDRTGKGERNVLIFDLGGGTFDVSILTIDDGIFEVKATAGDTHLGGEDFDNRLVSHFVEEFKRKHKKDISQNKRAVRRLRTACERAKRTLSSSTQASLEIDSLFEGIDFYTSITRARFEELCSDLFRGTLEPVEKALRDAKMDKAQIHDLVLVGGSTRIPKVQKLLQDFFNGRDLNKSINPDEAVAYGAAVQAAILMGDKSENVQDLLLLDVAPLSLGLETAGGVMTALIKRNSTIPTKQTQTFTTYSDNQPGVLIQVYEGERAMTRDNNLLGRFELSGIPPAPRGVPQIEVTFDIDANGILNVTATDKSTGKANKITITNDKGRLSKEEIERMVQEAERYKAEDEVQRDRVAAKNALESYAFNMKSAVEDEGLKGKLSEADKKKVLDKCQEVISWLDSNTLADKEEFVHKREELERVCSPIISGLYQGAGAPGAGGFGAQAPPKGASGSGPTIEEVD
Procedure: Purified mouse cytosolic hsp70 was prepared from E. coli DH5α cells transformed with pMS236 encoding mouse cytosolic hsp70. The cells were grown to an optical density (600 nm) of 0.6 at 37° C., and expression was induced by the addition of IPTG to a final concentration of 1 mM. Cells were harvested by centrifugation 2 to 5 hours post induction and the pellets were resuspended to 20 mL with Buffer A (20 mM Hepes pH 7.0, 25 mM KCl, 1 mM DTT, 10 mM (NH4)2SO4, 1 mM PMSF). The cells were lysed by passing three times through a French press. The lysate was cleared by a low speed spin, followed by centrifugation at 100,000×G for 30 minutes. The cleared lysate was applied to a Pharmacia XK26 column packed with 100 mL DEAE Sephacel and equilibrated with Buffer A at a flow rate of 0.6 cm/min. The column was washed to stable baseline with Buffer A and eluted with Buffer A adjusted to 175 mM KCl. […]
The ability of the OVA-BiP peptide to bind to heat shock proteins was measured by incubating 100 μM (5μg) ^14C-labeled OVA-BiP with 50 μg of BiP (prepared as in example 11), hsp70 (as prepared in Example 2) or grp96 (prepared as in Example 10) in a final volume of 20 μl of buffer (50 mM Mops, pH 7.2., […] NaCl, 5 mM MgAcetate) at 37° C. for 30 minutes. […] 50 μl of each ˜225 μl fraction was counted in scintillation liquid. […]

[4] = target: T1, BiP; assay: as above; conditions: 100 μM 14C-labeled peptide, 50 μg BiP, 37° C., 30 minutes
Procedure: ^14C-labeled OVA-BiP was prepared by alkylation of OVA-BiP with ^14C-formaldehyde. 0.9 mg of OVA-BiP in 300 uL 10% DMSO/water was added to 175 μl of ^14C-formaldehyde (62 μCi) and immediately 50 uL of freshly made up 200 mM NaCNBH3 was added. The reaction was mixed and left at 25° C. for 3 hours. The labeled peptide was repurified by reverse phase HPLC on a C-4 column in a 15 minute 0-100% acetonitrile (0.1% TFA) gradient.
The ability of the OVA-BiP peptide to bind to heat shock proteins was measured by incubating 100 μM (5μg) ^14C-labeled OVA-BiP with 50 μg of BiP (prepared as in example 11), hsp70 (as prepared in Example 2) or grp96 (prepared as in Example 10) in a final volume of 20 μl of buffer (50 mM Mops, pH 7.2., […] NaCl, 5 mM MgAcetate) at 37° C. for 30 minutes. The samples were then spun down (5 minutes in a microfuge) and loaded onto a 17 cm long Sephacryl S-300 column equilibrated in binding buffer (50 mM Mops, pH 7.2., 200 mM NaCl, 5 mM MgAcetate) and fractions were collected dropwise. 50 μl of each ˜225 μl fraction was counted in scintillation liquid. 10 μl of each fraction was also run on a 12% SDS-PAGE reducing gel. […] The result for gp96 is unclear because the peak at fraction 11 (which may represent an aggregation phenomenon) and the gp96 peak (fraction 14) elute close together on the column used.

release of hybrid peptide from BiP on addition of ATP (FIG. 7) [2] | Substance | results on cells pulsed with Ova-peptide (FIG. 5A) versus cells not pulsed (FIG. 5B) [1] | radio-activity co-eluting with heat shock protein (FIG. 6) [3] | radio-activity co-eluting with heat shock protein (FIG. 6) [4]
– | HWDFAWPWGSGSIINFEKL [BiP-OVA] | the same | – | –
addition of ATP causes the release | ^125I-OVA-BiP: OVA-BiP labeled with monoiodinated Bolton-Hunter reagent (SIINFEKLGSGHWDFAWPW; also: labelled with monoiodinated (125I) Bolton-Hunter reagent, place not given here) | – | – | –
– | Ser-Ile-Ile-Asn-Phe-Glu-Lys-Leu (SIINFEKL) [Ova-peptide, OVA antigenic domain peptide, reference compound] | the same | – | –
– | hsp70: purified recombinant mouse cytosolic hsp70 from E. coli DH5α transformed with pMS236 | the same | – | –
– | SIINFEKLGSGHWDFAWPW [OVA-BiP] | the same | significant amount of radio-activity elutes with BiP and hsp70 | significant amount of radio-activity elutes with BiP
